Experimental data reported in the NIST ThermoML archive (doi:10.1016/j.tca.2010.08.021).
Numbers after ± are expanded uncertainties.

Experiments:
[1] = Crystal; visual observation
[2] = Molar enthalpy of transition or fusion; conditions: Crystal; DSC

Compound	Normal melting temperature [1]	Molar enthalpy of transition or fusion [2]
N#CCCC#N [butanedinitrile]	57.00 ± 1 °C	0.884 ± 0.0478 kcal/mol
O=[N+]([O-])c1c(Cl)c(Cl)c(Cl)c(Cl)c1Cl [pentachloronitrobenzene]	145.00 ± 1 °C	4.59 ± 0.143 kcal/mol
